According to US7973162B2, “Modulators of muscarinic receptors” (Vertex Pharmaceuticals Incorporated, priority 2007, dated 2011):

How the values were obtained:
Type in all cases: cell-based
M1 muscarinic receptor = molecular target: T1, M1 muscarinic receptor (Homo sapiens, UniProt P11229); test: Functional mobilization of intracellular calcium (FLIPR), M1-CHO cells; settings: for EC50: CHO cells expressing M1, calcium mobilization
T1 construct: expressed in transfected cells; host or cells: CHO (M1-CHO)
T1 sequence (P11229 1-460): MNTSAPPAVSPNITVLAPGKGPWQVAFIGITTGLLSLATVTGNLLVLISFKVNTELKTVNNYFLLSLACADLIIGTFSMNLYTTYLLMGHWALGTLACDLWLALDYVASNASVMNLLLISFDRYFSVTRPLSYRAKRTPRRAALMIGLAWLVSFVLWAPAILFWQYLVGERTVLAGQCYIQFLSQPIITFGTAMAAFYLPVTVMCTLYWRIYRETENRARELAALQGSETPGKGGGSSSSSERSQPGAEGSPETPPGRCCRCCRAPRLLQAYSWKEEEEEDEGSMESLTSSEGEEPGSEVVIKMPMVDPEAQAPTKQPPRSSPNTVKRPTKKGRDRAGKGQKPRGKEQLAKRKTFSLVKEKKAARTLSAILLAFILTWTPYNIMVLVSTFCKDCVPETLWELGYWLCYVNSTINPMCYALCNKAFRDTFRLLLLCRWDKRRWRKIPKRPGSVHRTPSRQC
Procedure: (§1) Functional Mobilization of Intracellular Calcium to Determine Muscarinic Receptor Activity:
(§2) CHO cells expressing muscarinic receptors (M1 to M5) are grown as monolayers in tissue culture flasks at 37° C. in a humidified atmosphere containing 5% CO2 and passaged every 3-5 days. The growth media is Dulbecco's modified eagles medium (DMEM, Gibco Cat# 12430-054), containing 25 mM Hepes and supplemented with Fetal Bovine Serum (Hyclone, cat #SH30071.03), 0.1 mM of MEM non-essential amino acids (GIBCO, Cat #11140-050), 1 mM MEM Sodium Pyruvate (GIBCO Cat #11360-070) and 100 units/ml of Penicillin G and 100 μg/ml of Streptomycin (GIBCO Cat #15140-122). The recombinant muscarinic receptor cell lines are grown under antibiotic pressure with media containing 25 μg/ml zeocin and 500 μg/ml G418 (M1-CHO), 4 μg/ml puromycin, 50 μg/ml zeocin and 2.5 μg/ml blasticidin (M2 and M4-CHO) or 50 μg/ml zeocin and 4 μg/ml puromycin (M3 and M5-CHO).
(§3) Cells are harvested at 80-90% confluence using Versene (GIBCO Cat #15040-066), collected by centrifugation and seeded 18-24 hrs prior to running the calcium assay at a density of 5,000-10,000 cells/well in […], clear-bottomed 384-well plates (BD Biocoat, poly-D-lysine, Cat#356663). The day of the experiment, the cells are washed with a plate washer (Bioteck Instruments, ELX 405) using bath1 buffer (140-mM NaCl, 4.5-mM KCl, 2-mM CaCl2, 1-mM MgCl2, 10-mM Hepes-Na, 10-mM Glucose, pH 7.4, with NaOH) containing 1 mM Probenecid. Next, the calcium dye Fluo-3 (25 μl/well of Fluo-3 AM at 4 μM, Molecular Probes F-1241, in Bath 1 buffer containing 1 mM Probenecid) is added to the 25 μl of Bath 1 remaining in each well after the plate wash and the dye is loaded at 37° C. in the tissue culture incubator for 60-90 min. The fluorescent dye is removed using the plate washer with Bath 1 containing 1 mM Probenecid, leaving 25 μl/well of this solution after the wash. Alternatively, cells can be loaded with the calcium indicator from Molecular Devices (Calcium 3 Assay Reagents, Cat #R7181) adding 5 μl of a 5× solution dye in Bath 1 containing 1 mM Probenecid (10 ml per dye flask cat #R7182 to generate a solution 20×) to 20 μl of the same buffer. After loading for 60 min, the experiment can be run without having to remove the dye.
(§4) Compounds are prepared at a 2× fold concentration in a 96-well plate (round bottom, Costar Corning cat #3656), by reconstituting the pre-spotted compounds in bath 1 containing 1 mM probenecid. The final concentration DMSO is 0.5%, and the amount of DMSO is normalized across the assay plate. To determine an agonist action of the compounds on muscarinic receptors, the reconstituted compounds are added (25 μl compound/well) to the cell assay plate (containing 25 μl/well) using the multi-channel robotic system of the FLIPR 3 Instrument (Molecular Devices, Sunnyvale, Calif.). To determine a functional inhibitory action of the compounds on muscarinic receptors, the reconstituted compounds are added (25 μl compound/well) to the assay plate and pre-incubated for 15 min prior to adding 25 μl of Carbachol at 3× the EC80 for each muscarinic subtype. Alternatively, the compounds can be co-applied simultaneously with the agonist. In both assay modes, the fluorescence is recorded for 60 sec (excitation wavelength is […] and emission wavelength 540 nm) using the FLIPR 3 instrument.
(§5) The potency, efficacy and selectivity of the muscarinic compounds were evaluated by screening the compound activity across the whole family (M1 to M5 cells). Compounds were also screened for activity on other proteins such as other GPCRs and ion channels to determine selectivity on M4 receptors.
(§6) Examples of activities and efficacies of the muscarinic compounds of formulae (I, Ia, and Ib) on modulating M1 and M4 receptors are shown below in Table 3. […]

M2 muscarinic receptor = molecular target: T2, M2 muscarinic receptor (Homo sapiens, UniProt P08172); test: Functional mobilization of intracellular calcium (FLIPR), M2-CHO cells; settings: for EC50: CHO cells expressing M2, calcium mobilization
T2 construct: expressed in transfected cells; host or cells: CHO (M2-CHO)
T2 sequence (P08172 1-466): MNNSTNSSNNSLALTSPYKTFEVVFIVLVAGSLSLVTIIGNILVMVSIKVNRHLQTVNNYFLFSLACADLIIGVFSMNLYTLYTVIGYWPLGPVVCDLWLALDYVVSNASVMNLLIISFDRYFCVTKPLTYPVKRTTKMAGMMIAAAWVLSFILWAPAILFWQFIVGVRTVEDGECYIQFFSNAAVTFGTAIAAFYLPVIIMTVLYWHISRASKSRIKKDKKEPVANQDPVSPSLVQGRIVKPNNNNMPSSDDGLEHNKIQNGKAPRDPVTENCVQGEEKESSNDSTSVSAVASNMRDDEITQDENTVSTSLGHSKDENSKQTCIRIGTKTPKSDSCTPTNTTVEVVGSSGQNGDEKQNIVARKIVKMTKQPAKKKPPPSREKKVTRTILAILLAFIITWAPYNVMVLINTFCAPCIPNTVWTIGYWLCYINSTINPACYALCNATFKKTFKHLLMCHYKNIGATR
Procedure: as §1, §2, §3, §4, §5, §6

M3 muscarinic receptor = molecular target: T3, M3 muscarinic receptor (Homo sapiens, UniProt P20309); test: Functional mobilization of intracellular calcium (FLIPR), M3-CHO cells; settings: for EC50: CHO cells expressing M3, calcium mobilization
T3 construct: expressed in transfected cells; host or cells: CHO (M3-CHO)
Procedure: as §1, §2, §3, §4, §5, §6

M4 muscarinic receptor = molecular target: T4, M4 muscarinic receptor (Homo sapiens, UniProt P08173); test: Functional mobilization of intracellular calcium (FLIPR), M4-CHO cells; settings: for EC50: CHO cells expressing M4, calcium mobilization
T4 construct: expressed in transfected cells; host or cells: CHO (M4-CHO)
T4 sequence (P08173 1-479): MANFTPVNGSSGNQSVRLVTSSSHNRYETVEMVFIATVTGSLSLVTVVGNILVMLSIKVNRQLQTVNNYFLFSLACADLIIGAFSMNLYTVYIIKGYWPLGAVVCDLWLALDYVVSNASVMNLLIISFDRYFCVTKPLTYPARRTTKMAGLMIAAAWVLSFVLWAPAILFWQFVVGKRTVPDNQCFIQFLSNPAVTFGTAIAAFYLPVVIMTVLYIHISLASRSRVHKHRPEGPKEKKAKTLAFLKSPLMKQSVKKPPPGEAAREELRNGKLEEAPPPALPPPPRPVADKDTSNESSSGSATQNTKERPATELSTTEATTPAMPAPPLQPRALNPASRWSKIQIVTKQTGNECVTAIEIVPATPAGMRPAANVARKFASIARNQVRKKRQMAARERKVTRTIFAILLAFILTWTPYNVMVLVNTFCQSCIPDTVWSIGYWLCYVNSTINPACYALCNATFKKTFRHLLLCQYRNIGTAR
Procedure: as §1, §2, §3, §4, §5, §6

[1] = 100% efficacy = maximum response obtained with the Carbachol control

T3 sequence (P20309 whole entry): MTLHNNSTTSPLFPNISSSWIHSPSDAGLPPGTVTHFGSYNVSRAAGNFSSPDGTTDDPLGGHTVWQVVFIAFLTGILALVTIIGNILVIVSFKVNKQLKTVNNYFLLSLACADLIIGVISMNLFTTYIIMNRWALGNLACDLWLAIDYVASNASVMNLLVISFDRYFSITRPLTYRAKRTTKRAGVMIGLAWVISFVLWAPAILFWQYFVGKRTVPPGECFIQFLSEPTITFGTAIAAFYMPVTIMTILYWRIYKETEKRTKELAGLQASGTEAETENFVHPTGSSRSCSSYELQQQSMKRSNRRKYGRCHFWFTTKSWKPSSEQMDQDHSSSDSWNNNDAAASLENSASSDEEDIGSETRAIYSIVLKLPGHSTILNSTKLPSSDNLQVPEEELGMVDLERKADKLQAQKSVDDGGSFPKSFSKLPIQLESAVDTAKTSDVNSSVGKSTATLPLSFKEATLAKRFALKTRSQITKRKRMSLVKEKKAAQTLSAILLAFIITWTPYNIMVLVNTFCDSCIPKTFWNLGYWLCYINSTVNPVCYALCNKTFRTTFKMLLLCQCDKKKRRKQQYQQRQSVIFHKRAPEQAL

SMILES | Emax (M1 muscarinic receptor; [1]) | EC50 (M1 muscarinic receptor) | Emax (M2 muscarinic receptor; [1]) | EC50 (M2 muscarinic receptor) | Emax (M3 muscarinic receptor; [1]) | EC50 (M3 muscarinic receptor) | Emax (M4 muscarinic receptor; [1]) | EC50 (M4 muscarinic receptor) | M1 Efficacy (M1 muscarinic receptor; [1]) | M2 Efficacy (M2 muscarinic receptor; [1]) | M3 Efficacy (M3 muscarinic receptor; [1]) | M4 Efficacy (M4 muscarinic receptor; [1])
c1ccc2c(c1)C1OCCC1CC21CCN(C2C[C@H]3CC[C@@H]2C3)CC1 (stereo partly drawn) [Compound 6] | < 25% | > 5 µM | < 25% | > 5 µM | < 25% | > 5 µM | 25 to 100% | < 2 µM |  |  |  | 
CC(=O)N1CC[C@@H]2CC3(CCN(C4CCCCC4)CC3)c3ccccc3[C@@H]21 [Compound 27] | < 25% | > 5 µM | < 25% | > 5 µM | < 25% | > 5 µM | < 25% | > 5 µM |  |  |  | 
CN1C(=O)C[C@@H]2CC3(CCN(C4CCCCCC4)CC3)c3ccccc3[C@@H]21 [Compound 29] |  | < 2 µM |  | < 2 µM |  | > 5 µM |  | < 2 µM | ++ (efficacy was calculated to be from 100% to 25%) | ++ (efficacy was calculated to be from 100% to 25%) | + (efficacy was calculated to be less than 25%) | ++ (efficacy was calculated to be from 100% to 25%)
